Our source for the IC50 values is paper PMC10439952, “JT002, a small molecule inhibitor of the NLRP3 inflammasome for the treatment of autoinflammatory disorders” (Scientific Reports, 2023).

The structures appear in SMILES notation.

Common to all, as to assay type: cell-based
One test relates to TNFα production. Nature of the test: TNFα production in mouse BMDMs stimulated by LPS + nigericin. The conditions noted are these: Mouse BMDM, read-out: Geo Av IC50, TNFα. The source says:
(§1) Inflammasome activation and whole blood assays were essentially carried out as described earlier. Details can be found in the supplementary information section accompanying this publication. A protocol for blood draws from healthy volunteers and use of the blood in preclinical assays was approved by Western Institutional Review Board, Inc (Puyallup, WA, USA). Informed consent was obtained from each donor prior to the first blood draw.
(§2) 4H). MS: m/z 433.1 (M+H+).
Inflammasome activation.PBMCs (iXCells Biotechnologies, San Diego, USA) were thawed the day before the assay and seeded in complete medium (RPMI 1640 medium with GlutaMAX, supplemented with an additional 2.5 g/L D-glucose, 10% Fet al Bovine Serum, 100 mM Sodium Pyruvate, 1% Penicillin/Streptomycin, 10 mM HEPES and 0.05 mM β -mercaptoethanol) in polystyrene V-bottom 96-well plates at 5x10^4 cells per well and incubated overnight at 37°C with 5% CO 2. […]
flagellin, prepared in Opt iMEM and combined with Lipofectamine 2000. […] After priming Nlrp3 -/- mBMDMs with 100 ng/mL of LPS for 3- 5 h, cells were exposed to 100 ng/mL L18- MDP and incubated overnight.At the end of the incubation period of the assays above, plates were briefly centri fuged and hal f of the cell culture supern atant remo ved and either analysed i mmediately or stored at - 80°C for subs equent cytokine […]

The subject of test [1] is intracellular caspase-1 activity. Nature of the test: Intracellular caspase-1 activity in human PBMCs stimulated with LPS + nigericin (Caspase-Glo). To be noted: Human PBMC, read-out: Geo Av IC50, Caspase-1. The procedure: (§3) Cell viability was determined by addition of an equal volume of CellTiter-Glo® 2.0 reagent (Promega) to the remaining cells/supernatant in each well. Intracellular Caspase-1 activity was measured using the Caspase-Glo® assay (Promega) according to the manufacturer’s instructions. The biochemical capsase-1 assay was conducted at Reaction Biology Corporation (Malvern, USA). Human IL-1β, IL-1α, and TNFα and mouse IL-1β were measured in cell culture supernatants using homogeneous time resolved fluorescence assay kits (HTRF, Cisbio, Codolet, France). Human IL-18 was measured in cell culture supernatants using an ELISA kit (R&D Systems, Minneapolis, MN, USA). Plasma IL-1β concentrations were determined by Quantikine® ELISA (R&D Systems, Minneapolis, MN).
as §2
Inflammasome activation.PBMCs (iXCells Biotechnologies, San Diego, USA) were thawed the day before the assay and seeded in complete medium (RPMI 1640 medium with GlutaMAX, supplemented with an additional 2.5 g/L D-glucose, 10% Fet al Bovine Serum, 100 mM Sodium Pyruvate, 1% Penicillin/Streptomycin, 10 mM HEPES and 0.05 mM β -mercaptoethanol) in polystyrene V-bottom 96-well plates at 5x10^4 cells per well and incubated overnight at 37°C with 5% CO 2. The next day, PBMC media was r eplaced with serum-fr ee media p rior t o the assay. […]

The target of test [2] is T1, NLRP3 inflammasome (Mus musculus, UniProt Q8R4B8). Nature of the test: Inhibition of IL-1β production in mouse BMDMs stimulated by LPS + cholesterol crystals. More on the design: host or cells: mouse PBMCs; mouse bone-marrow derived macrophages; mouse whole blood (C57BL/6 in the ex vivo study). The conditions noted are these: Mouse BMDM, read-out: Geo Av IC50, IL-1β. The procedure:
as §1, §3
(§4) 4H). MS: m/z 433.1 (M+H+). […]

Test [3] deals with T1, NLRP3 inflammasome. Nature of the test: Inhibition of IL-1β production in mouse BMDMs stimulated by LPS + nigericin. The arrangement: host or cells: mouse PBMCs; mouse bone-marrow derived macrophages; mouse whole blood (C57BL/6 in the ex vivo study). The conditions noted are these: Mouse BMDM, read-out: Geo Av IC50, IL-1β. Here is the method:
as §1, §3, §4

T1 sequence (Q8R4B8 whole entry): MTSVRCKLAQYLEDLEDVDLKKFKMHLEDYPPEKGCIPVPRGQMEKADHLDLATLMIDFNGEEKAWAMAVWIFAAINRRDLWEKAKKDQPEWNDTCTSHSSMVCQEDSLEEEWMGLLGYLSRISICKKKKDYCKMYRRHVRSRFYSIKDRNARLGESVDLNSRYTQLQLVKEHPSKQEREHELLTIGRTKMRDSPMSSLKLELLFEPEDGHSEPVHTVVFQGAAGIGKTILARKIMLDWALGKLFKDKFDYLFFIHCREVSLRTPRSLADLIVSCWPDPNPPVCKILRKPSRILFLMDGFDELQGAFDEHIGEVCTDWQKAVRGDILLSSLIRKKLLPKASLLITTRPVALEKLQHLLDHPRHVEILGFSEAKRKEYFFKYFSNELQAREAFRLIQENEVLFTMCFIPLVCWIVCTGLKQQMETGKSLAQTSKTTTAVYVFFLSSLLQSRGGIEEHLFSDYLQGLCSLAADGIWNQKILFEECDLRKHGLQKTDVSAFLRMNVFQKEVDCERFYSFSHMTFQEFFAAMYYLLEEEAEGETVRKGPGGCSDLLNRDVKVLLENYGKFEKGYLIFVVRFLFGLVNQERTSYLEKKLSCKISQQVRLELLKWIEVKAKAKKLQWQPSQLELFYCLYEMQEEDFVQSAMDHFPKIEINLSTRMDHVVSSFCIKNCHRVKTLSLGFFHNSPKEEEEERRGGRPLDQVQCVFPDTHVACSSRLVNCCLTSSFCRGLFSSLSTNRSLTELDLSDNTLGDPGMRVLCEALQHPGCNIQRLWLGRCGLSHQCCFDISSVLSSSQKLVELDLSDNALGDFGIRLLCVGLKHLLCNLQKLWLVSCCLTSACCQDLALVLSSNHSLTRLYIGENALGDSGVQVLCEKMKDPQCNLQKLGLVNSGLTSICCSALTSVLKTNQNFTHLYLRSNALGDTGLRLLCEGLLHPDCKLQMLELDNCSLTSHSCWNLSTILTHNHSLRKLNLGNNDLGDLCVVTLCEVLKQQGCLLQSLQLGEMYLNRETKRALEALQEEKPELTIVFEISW

Take `CO[C@@H]1COc2c(S(=O)(=O)NC(=O)Nc3c4c(cc5c3CCC5)CCC4)cnn2C1` [JT002]: the IC50 with TNFα production was > 10000 nM; in test [1], 8 nM; at NLRP3 inflammasome [2], 2 nM; on NLRP3 inflammasome [3], 23 nM.
